Results from patent US7981903B2, “2-[2-{phenylamino}-1H-pyrrolo[2,3-D]pyrimidin-4-yl)amino] benzamide derivatives as IGF-1R inhibitors for the treatment of cancer” (GlaxoSmithKline LLC, priority 2007, dated 2011).
pIC50: −log10 of the molar value.

How the values were obtained:
[1] = target: T1, human IGF1R (hIGF1R) (Homo sapiens, UniProt P08069); assay: TR-FRET kinase assay of purified hIGF1R; assay type: biochemical; conditions: activated hIGF1R 0.5 nM, 10 μM ATP, values given as pIC50 category, read-out: IGF-1R pIC50 (converted)
T1 construct: containing amino acid residues 957-1367 of human IGF1R; made in house; host or cells: Sf9 cells (baculovirus)
T1 sequence (P08069 957-1367): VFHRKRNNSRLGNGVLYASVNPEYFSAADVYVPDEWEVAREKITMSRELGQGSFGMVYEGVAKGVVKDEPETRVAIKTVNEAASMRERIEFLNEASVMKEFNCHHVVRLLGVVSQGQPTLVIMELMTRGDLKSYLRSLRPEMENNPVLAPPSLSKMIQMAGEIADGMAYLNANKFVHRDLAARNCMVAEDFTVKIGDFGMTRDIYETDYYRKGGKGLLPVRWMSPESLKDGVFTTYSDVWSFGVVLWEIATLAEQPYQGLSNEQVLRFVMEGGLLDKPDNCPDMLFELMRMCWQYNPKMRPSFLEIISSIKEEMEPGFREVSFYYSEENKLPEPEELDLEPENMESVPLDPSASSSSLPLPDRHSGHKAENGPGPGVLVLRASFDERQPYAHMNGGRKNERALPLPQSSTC

[2] = target: T2, human IR (hIR) (Homo sapiens, UniProt P06213); assay: TR-FRET kinase assay of purified hIR; assay type: biochemical; conditions: activated hIR 0.5 nM, 10 μM ATP, values given as pIC50 category
T2 construct: containing amino acid residues 979-1382 of human IR; made in house; host or cells: Sf9 cells (baculovirus), same process as hIGF1R
T2 sequence (P06213 979-1382): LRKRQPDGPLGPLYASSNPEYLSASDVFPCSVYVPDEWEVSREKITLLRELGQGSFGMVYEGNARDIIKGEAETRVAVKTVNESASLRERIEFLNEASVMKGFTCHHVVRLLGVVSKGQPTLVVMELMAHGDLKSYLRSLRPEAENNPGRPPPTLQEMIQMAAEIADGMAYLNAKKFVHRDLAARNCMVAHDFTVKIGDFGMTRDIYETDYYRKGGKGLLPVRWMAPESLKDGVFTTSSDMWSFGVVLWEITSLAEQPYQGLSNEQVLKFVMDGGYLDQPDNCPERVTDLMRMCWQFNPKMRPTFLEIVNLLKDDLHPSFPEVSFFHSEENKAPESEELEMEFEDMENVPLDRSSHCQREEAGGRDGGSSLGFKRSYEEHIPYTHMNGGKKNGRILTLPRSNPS

[3] = target: T3, NIH-3T3 cells overexpressing human IGF-1R (Homo sapiens, UniProt P08069); assay: IGF-1R cellular autophosphorylation (DELFIA); assay type: cell-based
T3 construct: expressed in transfected cells; host or cells: NIH-3T3 (mouse fibroblasts)
T3 sequence (P08069 31-1367): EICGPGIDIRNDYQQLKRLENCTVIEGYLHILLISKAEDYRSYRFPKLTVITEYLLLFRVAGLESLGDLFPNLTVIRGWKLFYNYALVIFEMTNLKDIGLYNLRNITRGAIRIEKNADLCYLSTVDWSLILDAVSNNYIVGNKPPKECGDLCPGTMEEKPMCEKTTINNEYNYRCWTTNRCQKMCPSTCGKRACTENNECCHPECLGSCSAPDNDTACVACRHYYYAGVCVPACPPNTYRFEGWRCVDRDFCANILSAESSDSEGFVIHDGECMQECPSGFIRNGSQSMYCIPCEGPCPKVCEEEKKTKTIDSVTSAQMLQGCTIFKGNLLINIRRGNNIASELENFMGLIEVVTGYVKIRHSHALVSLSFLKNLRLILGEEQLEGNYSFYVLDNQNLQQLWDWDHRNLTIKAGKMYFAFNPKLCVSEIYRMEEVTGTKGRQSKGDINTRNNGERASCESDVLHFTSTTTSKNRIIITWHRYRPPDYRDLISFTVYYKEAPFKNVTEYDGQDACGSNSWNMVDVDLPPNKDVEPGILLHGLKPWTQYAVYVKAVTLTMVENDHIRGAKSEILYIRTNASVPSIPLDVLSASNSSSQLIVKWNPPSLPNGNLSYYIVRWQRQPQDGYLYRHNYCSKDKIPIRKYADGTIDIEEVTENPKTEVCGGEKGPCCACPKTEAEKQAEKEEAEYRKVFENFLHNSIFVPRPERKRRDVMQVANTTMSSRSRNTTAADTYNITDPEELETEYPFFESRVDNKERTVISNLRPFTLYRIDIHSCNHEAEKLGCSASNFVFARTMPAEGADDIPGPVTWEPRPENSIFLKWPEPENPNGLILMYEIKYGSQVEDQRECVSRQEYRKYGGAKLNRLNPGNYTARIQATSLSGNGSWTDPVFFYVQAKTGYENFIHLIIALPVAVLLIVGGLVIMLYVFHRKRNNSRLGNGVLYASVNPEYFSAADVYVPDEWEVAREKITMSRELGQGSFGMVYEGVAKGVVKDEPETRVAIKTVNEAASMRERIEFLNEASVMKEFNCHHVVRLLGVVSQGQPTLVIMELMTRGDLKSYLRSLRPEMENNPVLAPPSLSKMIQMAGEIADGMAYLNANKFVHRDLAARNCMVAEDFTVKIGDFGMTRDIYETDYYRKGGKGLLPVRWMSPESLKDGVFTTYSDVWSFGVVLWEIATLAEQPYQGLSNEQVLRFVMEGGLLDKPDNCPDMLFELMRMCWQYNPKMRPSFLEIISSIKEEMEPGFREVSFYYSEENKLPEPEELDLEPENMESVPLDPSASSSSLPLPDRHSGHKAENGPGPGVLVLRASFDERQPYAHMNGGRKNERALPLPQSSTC
Outline: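 Receptor autophosphorylation measured by DELFIA, capturing IGF-1R or IRβ and detecting with europium anti-pTyr, reported as percent of IGF-1- or insulin-stimulated signal. Compounds (30 uM to 1.5 nM) added 2 h before ligand, then 15 min stimulation (IGF-1 30 ng/ml or insulin 3 ug/ml).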

SMILES | IC50 [1] [nM] | pIC50 [2] | pIC50 [3]
COc1cc(OCCN2CCN(C)CC2)ccc1Nc1nc(Nc2cccc(F)c2C(N)=O)c2cc[nH]c2n1 [Example 203, 2-fluoro-6-({2-[(2-(methyloxy)-4-{[2-(4-methyl-1-piperazinyl)ethyl]oxy}phenyl)amino]-1H-pyrrolo[2,3-d]pyrimidin-4-yl}amino)benzamide] | 5.01 to 200 | 8.40 to 8.90 | 6.30 to 7.00
COc1cc(N2CCCN(C(C)C)CC2)ccc1Nc1nc(Nc2cccc(F)c2C(N)=O)c2cc[nH]c2n1 [Example 208, 2-fluoro-6-[(2-{[4-[4-(1-methylethyl)hexahydro-1H-1,4-diazepin-1-yl]-2-(methyloxy)phenyl]amino}-1H-pyrrolo[2,3-d]pyrimidin-4-yl)amino]benzamide] | 5.01 to 200 | 6.80 to 8.30 | 6.30 to 7.00
CCNC(=O)c1c(F)cc(F)cc1Nc1nc(Nc2cc3c(cc2OC)CCN3C(=O)CN(C)C)nc2[nH]ccc12 [Example 151, 2-[(2-{[1-(N,N-dimethylglycyl)-5-(methyloxy)-2,3-dihydro-1H-indol-6-yl]amino}-1H-pyrrolo[2,3-d]pyrimidin-4-yl)amino]-N-ethyl-4,6-difluorobenzamide] | 0.251 to 1 | 9.00 to 9.60 | 6.30 to 7.00
CNC(=O)c1c(F)cccc1Nc1nc(Nc2cc3c(cc2OC)CCCN3C(=O)[C@@H]2CCCN2C)nc2[nH]ccc12 [Example 202, 2-fluoro-N-methyl-6-[(2-{[6-(methyloxy)-1-(1-methyl-L-prolyl)-1,2,3,4-tetrahydro-7-quinolinyl]amino}-1H-pyrrolo[2,3-d]pyrimidin-4-yl)amino]benzamide] | 5.01 to 200 | 6.80 to 8.30 | 6.30 to 7.00
COc1cc2c(cc1Nc1nc(Nc3cccc(F)c3C(N)=O)c3cc[nH]c3n1)N(C(=O)CN(C)C)CCC2 [Example 210, 2-[(2-{[1-(N,N-dimethylglycyl)-6-(methyloxy)-1,2,3,4-tetrahydro-7-quinolinyl]amino}-1H-pyrrolo[2,3-d]pyrimidin-4-yl)amino]-6-fluorobenzamide] | 0.251 to 1 | 9.00 to 9.60 | > 7.00
CNC(=O)c1c(F)cc(F)cc1Nc1nc(Nc2cc3c(cc2OC)CCCN3C(=O)CN2CCCC2)nc2[nH]ccc12 [Example 221, 2,4-difluoro-N-methyl-6-[(2-{[6-(methyloxy)-1-(1-pyrrolidinylacetyl)-1,2,3,4-tetrahydro-7-quinolinyl]amino}-1H-pyrrolo[2,3-d]pyrimidin-4-yl)amino]benzamide] | 0.251 to 1 | 9.00 to 9.60 | > 7.00
COc1cc(N2CCOC[C@@H]2C)ccc1Nc1nc(Nc2cc(F)ccc2C(N)=O)c2cc[nH]c2n1 [Example 84, 4-fluoro-2-[(2-{[4-[(3S)-3-methyl-4-morpholinyl]-2-(methyloxy)phenyl]amino}-1H-pyrrolo[2,3-d]pyrimidin-4-yl)amino]benzamide] | 0.251 to 1 | 9.00 to 9.60 | > 7.00
COc1ccc(C(N)=O)c(Nc2nc(Nc3ccc(N4CCOC[C@@H]4C)cc3OC)nc3[nH]ccc23)c1 [Example 39, 2-[(2-{[4-[(3S)-3-methyl-4-morpholinyl]-2-(methyloxy)phenyl]amino}-1H-pyrrolo[2,3-d]pyrimidin-4-yl)amino]-4-(methyloxy)benzamide] | 5.01 to 200 | 8.40 to 8.90 | 6.30 to 7.00
COCC(=O)N1CCc2cc(OC)c(Nc3nc(Nc4cccc(F)c4C(N)=O)c4cc[nH]c4n3)cc21 [Example 149, 2-fluoro-6-{[2-({5-(methyloxy)-1-[(methyloxy)acetyl]-2,3-dihydro-1H-indol-6-yl}amino)-1H-pyrrolo[2,3-d]pyrimidin-4-yl]amino}benzamide] | 5.01 to 200 | 6.80 to 8.30 | 6.30 to 7.00
COc1cc2c(cc1Nc1nc(Nc3cccc(F)c3C(N)=O)c3cc[nH]c3n1)NCC2 [Example 140, 2-fluoro-6-[(2-{[5-(methyloxy)-2,3-dihydro-1H-indol-6-yl]amino}-1H-pyrrolo[2,3-d]pyrimidin-4-yl)amino]benzamide] | 5.01 to 200 | 6.80 to 8.30 | < 6.30
COc1cc2c(cc1Nc1nc(Nc3cccc(F)c3C(N)=O)c3cc[nH]c3n1)CN(C)CC2 [Example 121, 2-fluoro-6-[(2-{[2-methyl-6-(methyloxy)-1,2,3,4-tetrahydro-7-isoquinolinyl]amino}-1H-pyrrolo[2,3-d]pyrimidin-4-yl)amino]benzamide] | 5.01 to 200 | 8.40 to 8.90 | 6.30 to 7.00
CNC(=O)c1c(F)cccc1Nc1nc(Nc2cc3c(cc2OC)CCN3C(=O)COC)nc2[nH]ccc12 [Example 150, 2-fluoro-N-methyl-6-{[2-({5-(methyloxy)-1-[(methyloxy)acetyl]-2,3-dihydro-1H-indol-6-yl}amino)-1H-pyrrolo[2,3-d]pyrimidin-4-yl]amino}benzamide] | 5.01 to 200 | 6.80 to 8.30 | < 6.30
CCN(C)CC(=O)N1CCCc2cc(OC)c(Nc3nc(Nc4cccc(F)c4C(=O)NC)c4cc[nH]c4n3)cc21 [Example 132, 2-[(2{-[1-(N-ethyl-N-methylglycyl)-6-(methyloxy)-1,2,3,4-tetrahydro-7-quinolinyl]amino}-1H-pyrrolo[2,3-d]pyrimidin-4-yl)amino]-6-fluoro-N-methylbenzamide] | 5.01 to 200 | 8.40 to 8.90 | > 7.00
COc1cc(N2CCN(S(C)(=O)=O)CC2)ccc1Nc1nc(Nc2cccc(F)c2C(N)=O)c2cc[nH]c2n1 [Example 204, 2-fluoro-6-{[2-({2-(methyloxy)-4-[4-(methylsulfonyl)-1-piperazinyl]phenyl}amino)-1H-pyrrolo[2,3-d]pyrimidin-4-yl]amino}benzamide] | 5.01 to 200 | 8.40 to 8.90 | < 6.30
COc1cc2c(cc1Nc1nc(Nc3cccc(F)c3C(N)=O)c3cc[nH]c3n1)N(C(=O)N(C)C)CC2 [Example 146, 6-[(4-{[2-(aminocarbonyl)-3-fluorophenyl]amino}-1H-pyrrolo[2,3-d]pyrimidin-2-yl)amino]-N,N-dimethyl-5-(methyloxy)-2,3-dihydro-1H-indole-1-carboxamide] | 5.01 to 200 | 6.80 to 8.30 | < 6.30
COc1cc2c(cc1Nc1nc(Nc3cccc(F)c3C(N)=O)c3cc[nH]c3n1)N(C(=O)Cn1ccnc1)CC2 [Example 145, 2-fluoro-6-[(2-{[1-(1H-imidazol-1-ylacetyl)-5-(methyloxy)-2,3-dihydro-1H-indol-6-yl]amino}-1H-pyrrolo[2,3-d]pyrimidin-4-yl)amino]benzamide] | 5.01 to 200 | 6.80 to 8.30 | < 6.30
COc1cc2c(cc1Nc1nc(Nc3cccc(F)c3C(N)=O)c3cc[nH]c3n1)N(C(=O)CCN1CCOCC1)CC2 [Example 187, 2-fluoro-6-{[2-({5-(methyloxy)-1-[3-(4-morpholinyl)propanoyl]-2,3-dihydro-1H-indol-6-yl}amino)-1H-pyrrolo[2,3-d]pyrimidin-4-yl]amino}benzamide] | 5.01 to 200 | 6.80 to 8.30 | 6.30 to 7.00
